Series [1] has as its target T1, Bile acid receptor (Homo sapiens, UniProt Q96RI1).
T1 sequence (Q96RI1 whole entry): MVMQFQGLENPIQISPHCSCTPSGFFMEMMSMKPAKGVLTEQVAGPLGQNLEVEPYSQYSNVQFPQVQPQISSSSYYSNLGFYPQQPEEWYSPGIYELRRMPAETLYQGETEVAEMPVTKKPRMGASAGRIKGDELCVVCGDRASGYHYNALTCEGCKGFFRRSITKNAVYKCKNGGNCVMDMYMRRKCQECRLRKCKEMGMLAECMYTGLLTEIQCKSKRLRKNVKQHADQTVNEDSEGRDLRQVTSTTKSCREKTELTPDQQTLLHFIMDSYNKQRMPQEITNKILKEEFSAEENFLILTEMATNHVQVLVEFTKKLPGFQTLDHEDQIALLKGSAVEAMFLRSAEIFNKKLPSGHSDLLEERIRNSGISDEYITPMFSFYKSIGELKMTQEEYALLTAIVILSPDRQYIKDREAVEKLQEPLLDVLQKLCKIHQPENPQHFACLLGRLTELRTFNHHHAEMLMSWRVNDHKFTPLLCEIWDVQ
Nature of the series: Agonist activity at FXR in HEK293T cells assessed as transcriptional activity by measuring […] by luciferase reporter assay. Type of series: cell-based.

The species named for series [2] is Mus musculus. As to the kind of experiment: Protection against Con-A induced autoimmune hepatitis mouse model assessed as reduction in ALT level. Type of series: functional, organism-based.
Series [3] is filed under the species Mus musculus. Nature of the series: Protection against Con-A induced autoimmune hepatitis mouse model assessed as reduction in AST level. Type of series: functional, organism-based.
Series [4] can be described thus: Half life in mouse at 100 mg/kg, po. Type of series: ADME, organism-based. Conditions: in vivo.
A short description of series [5]: AUC (0 to t) in mouse at 5 mg/kg, iv. Type of series: ADME, organism-based. More on the design: dose 5 mg/kg, route iv. Particulars: in vivo.
The nature of series [6]: Clearance in mouse at 100 mg/kg, po or 5 mg/kg, iv. It is filed as ADME, organism-based. Particulars: in vivo.
A short description of series [7]: Cmax in mouse at 100 mg/kg, po. Type of series: ADME, organism-based. More on the design: dose 100 mg/kg, route po. Particulars: in vivo.
A short description of series [8]: AUC (0 to t) in mouse at 100 mg/kg, po. Type of series: ADME, organism-based. More on the design: dose 100 mg/kg, route po. Conditions: in vivo.
The nature of series [9]: Tmax in mouse at 100 mg/kg, po. Type of series: ADME, organism-based. Conditions: in vivo.
Series [10] can be described thus: Oral bioavailability in mouse at 100 mg/kg. It is filed as ADME, organism-based. Conditions: in vivo.
A short description of series [11]: AUCinfinity in mouse at 5 mg/kg, iv. It is filed as ADME, organism-based. More on the design: time infinity, dose 5 mg/kg, route iv. Conditions: in vivo.
A short description of series [12]: AUCinfinity in mouse at 100 mg/kg, po. It is filed as ADME, organism-based. Conditions: in vivo. More on the design: time infinity, dose 100 mg/kg, route po.
Series [13] can be described thus: AUCinfinity in mouse at 20 mg/kg, po. More on the design: time infinity, dose 20 mg/kg, route po. It is filed as ADME, organism-based. Particulars: in vivo.
Series [14] in a line: AUC (0 to t) in mouse at 20 mg/kg, po. It is filed as ADME, organism-based. More on the design: dose 20 mg/kg, route po. Particulars: in vivo.
The nature of series [15]: Clearance in mouse at 20 mg/kg, po or 5 mg/kg, iv. Type of series: ADME, organism-based. Conditions: in vivo.
Series [16] is described as follows: Tmax in mouse at 20 mg/kg, po. Type of series: ADME, organism-based. Conditions: in vivo.
The nature of series [17]: Half life in mouse at 20 mg/kg, po. It is filed as ADME, organism-based. Conditions: in vivo.
Series [18] can be described thus: Oral bioavailability in mouse at 20 mg/kg. It is filed as ADME, organism-based. Particulars: in vivo.
The nature of series [19]: Cmax in mouse at 20 mg/kg, po. Type of series: ADME, organism-based. More on the design: dose 20 mg/kg, route po. Particulars: in vivo.

The structures appear in SMILES notation. Activity calls are given as the source filed them. The calls are words filed in the database; no cut-off is given here. Bounds are passed on as bounds.

The values below come from ChEMBL document CHEMBL5214939, “Design, synthesis and biological evaluations of novel farnesoid X receptor (FXR) agonists” (Bioorg Med Chem Lett, 2022).

What is called EC50 is the concentration that produces a half-maximal response. The half-life is the time in which the quantity being followed falls by half. A higher half-life goes with slow loss. In general, AUC(0-t) refers to exposure summed from dosing to a finite time, without extrapolation to infinity. A word on the Cmax: it is the peak of the concentration-time curve. The Tmax is the time at which the peak concentration occurs. By AUC is commonly meant concentration integrated over time.

Turning to `CN(Cc1ccc(C(=O)O)cc1)c1ccc(OCc2c(-c3c(Cl)cccc3Cl)nsc2C2CC2)nc1C(F)(F)F`, the concentration for a half-maximal effect (EC50) in series [1] came to 310 nM. Also, the outcome in series [2] was Active.

Take `CC(C)c1snc(-c2c(Cl)cccc2Cl)c1COc1ccc(N(C)CC2CCCC(C(=O)O)C2)c(C(F)(F)F)n1` (centres undefined): the EC50 in series [1] is more than 30000 nM.

Turning to `CN(Cc1ccc(C(=O)NO)cc1)c1ccc(OCc2c(-c3c(Cl)cccc3Cl)nsc2C2CC2)nc1C(F)(F)F`, in series [1], the concentration for a half-maximal effect (EC50) is more than 30000 nM.

As to `CC(C)c1snc(-c2c(Cl)cccc2Cl)c1COc1ccc(/C=C/c2cccc(C(=O)O)c2)c(Cl)c1`, in series [1], the EC50 was determined as 570 nM.

Consider `CN(Cc1ccc(C(=O)O)cc1)c1ccc(OCc2c(-c3c(Cl)cccc3Cl)nsc2C2CC2)cc1C(F)(F)F`, for which, in series [1], the half-maximal effective concentration (EC50) was found to be 410 nM. Moreover, the result in series [2] was Active.

As to `CC(C)c1snc(-c2c(Cl)cccc2Cl)c1COc1ccc(N(C)Cc2ccc(C(=O)O)s2)c(C(F)(F)F)n1`, the EC50 in series [1] amounted to 510 nM.

On to `CC(C)c1snc(-c2c(Cl)cccc2Cl)c1COc1ccc(N(C)Cc2ccc(C(=O)O)cc2)c(C(F)(F)F)n1`, for which the EC50 in [1] is 350 nM. The result in [2] and in series [3] was Active.

The compound `CN(Cc1cccc(C(=O)O)c1)c1ccc(OCc2c(-c3c(Cl)cccc3Cl)nsc2C2CC2)nc1C(F)(F)F` had a half-life in series [4] of 2.6 h. Also, the area under the curve AUC(0-t) in series [5] came out at 5760 ng·h/mL; in [8], 5370 ng·h/mL. In addition, the CL in series [6] was 14.3 mL/min/kg. This compound gave a Cmax in [7] of 40200 ng/mL. Moreover, the Tmax in series [9] was 0.5 h. The concentration giving a half-maximal response (EC50) in series [1] was 270 nM. Besides, the F in series [10] was 73%. Further, the figures for the area under the curve (AUC) in series [11] and in series [12] were 5822 ng·h/mL and 5415 ng·h/mL, respectively. Besides, the result in [2] and in [3] was Active.

For the compound `CC(C)c1onc(-c2c(Cl)cccc2Cl)c1COc1ccc(/C=C/c2cccc(C(=O)O)c2)c(Cl)c1`, the figures for the exposure AUC(0-t) in series [5] and in [14] were 3140 ng·h/mL and 85200 ng·h/mL, respectively. For the same compound, the values for the AUC in [13] and in series [11] were 85283 ng·h/mL and 3162 ng·h/mL, respectively. In series [15], this compound gave a CL of 26.3 mL/min/kg. Further, the time to peak (Tmax) in [16] amounted to 0.5 h. Moreover, the t1/2 in [17] amounted to 1.53 h. The F in [18] came out at 42.81%. This compound came in with a Cmax in series [19] of 4787 ng/mL.

On to `CCN(Cc1ccc(C(=O)O)cc1)c1ccc(OCc2c(-c3c(Cl)cccc3Cl)nsc2C(C)C)nc1C(F)(F)F`, for which the 50% effective concentration (EC50) in [1] is 2160 nM.

Consider `CN(Cc1cccc(C(=O)NO)c1)c1ccc(OCc2c(-c3c(Cl)cccc3Cl)nsc2C2CC2)nc1C(F)(F)F`, for which the 50% effective concentration (EC50) in series [1] came to 1090 nM.
